Data from publication PMC3260785 (The Journal of Physical Chemistry. B, 2011).

Target: T1, Formate dehydrogenase (FDH, Candida boidinii) ([Candida] boidinii, UniProt O13437)
T1 sequence (O13437 1-364): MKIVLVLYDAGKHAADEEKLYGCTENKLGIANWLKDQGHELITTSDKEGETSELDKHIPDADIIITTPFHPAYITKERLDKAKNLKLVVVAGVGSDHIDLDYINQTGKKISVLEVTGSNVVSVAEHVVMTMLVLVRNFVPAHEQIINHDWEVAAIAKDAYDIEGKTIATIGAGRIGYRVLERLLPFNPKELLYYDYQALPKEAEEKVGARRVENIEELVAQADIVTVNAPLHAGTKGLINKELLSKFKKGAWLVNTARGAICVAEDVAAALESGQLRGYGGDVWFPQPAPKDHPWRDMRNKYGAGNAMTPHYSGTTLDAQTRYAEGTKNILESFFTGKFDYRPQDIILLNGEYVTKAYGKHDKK
Assay: isothermal titration calorimetry
Format: binding

Compound `[N-]=[N+]=NCc1ccc[n+]([C@@H]2O[C@H](COP(=O)(O)OP(=O)(O)OC[C@H]3O[C@@H](n4cnc5c(N)ncnc54)[C@H](O)[C@@H]3O)[C@@H](O)[C@H]2O)c1` [PAAD^+] has a Kd of 7 µM.
